Laboratory results from patent US8648205B2, “Metal complexes of N-heterocyclic carbenes” (The University of Akron, priority 2003, dated 2014).
≈ marks a conversion by molar mass, not a printed value. Like-named read-outs stand apart in the source and are kept apart here.

Legend:
[1] = test system: Escherichia coli; format: cell-based; settings: 0.5% solution, 20 μL on 6 mm filter paper disc, over night
Experimental: (§1) In this test, a filter paper disc of 6 mm diameter was soaked with 20 μL of a silver compound of known concentration, and placed over a lawn of an organism in the agar plate. The diameter of the area in which growth of the organism is inhibited by the test solution was measured after an over night incubation as a measure of the relative antimicrobial activity of the silver compounds. The test organisms were Escherichia coli, Staphylococcus aureus, and Pseudomonas aeruginosa.

[2] = test system: Pseudomonas aeruginosa; format: cell-based; settings: 0.5% solution, 20 μL on 6 mm filter paper disc, over night
Experimental: as §1

[3] = test system: Staphylococcus aureus; format: cell-based; settings: 0.5% solution, 20 μL on 6 mm filter paper disc, over night
Experimental: as §1

[4] = test system: Escherichia coli, Staphylococcus aureus, and Pseudomonas aeruginosa; assay: agar plates overlay method, summary of Table 2; format: cell-based
Experimental: as §1, with “The usefulness of the compounds represented by Formulas 103 and 55 as antimicrobial agents was evaluated. In” for “In”

[5] = solubility; settings: 37: bromide salt; 20a, 20b: bromide salts
[6] = stability (air, light, water, chloride, storage); settings: 37: bromide salt; 20a, 20b: bromide salts
[7] = test system: Pseudomonas aeruginosa; assay: Efficacy data MIC and MBC (Table 7); format: cell-based
[8] = test system: Alcaligenes xylosoxidans; assay: Efficacy data MIC and MBC (Table 7); format: cell-based
[9] = test system: Stenotrophomonas maltophilia; assay: Efficacy data MIC and MBC (Table 7); format: cell-based; settings: isolate SM AH08
[10] = test system: Methicillin resistant Staphylococcus aureus (MRSA); assay: Efficacy data MIC and MBC (Table 7); format: cell-based
[11] = test system: Yersinia pestis; assay: microbe, parasite or virus in culture; format: cell-based
[12] = test system: Escherichia coli; assay: Efficacy data MIC and MBC (Table 7); format: cell-based
[13] = test system: E. coli (ATCC 8739); assay: MIC test in LB broth comparing AgNO3 and complex 106; format: cell-based; set-up: key: +=growth; −=no growth
[14] = test system: P. aeruginosa (ATCC 9027); assay: as above; format: cell-based; set-up: key: +=growth; −=no growth
[15] = test system: S. aureus (ATCC 6538); assay: as above; format: cell-based; set-up: key: +=growth; −=no growth
[16] = test system: Escherichia coli
[17] = test system: Pseudomonas aeruginosa
[18] = test system: Staphylococcus aureus; settings: Day 1
[19] = Day 1, 1DF: AgNO3 1731.18, 106 1675.74 μg/mL
[20] = Day 1, 2DF: AgNO3 865.59, 106 837.87 μg/mL
[21] = Day 1, 3DF: AgNO3 432.79, 106 418.94 μg/mL
[22] = Day 1, 4DF: AgNO3 216.40, 106 209.47 μg/mL
[23] = Day 1, undiluted: AgNO3 0.50 wt/V % (3462.35 μg/mL), 106 1.38 wt/V % (3341.48 μg/mL)
[24] = Day 2, 1DF: AgNO3 1731.18, 106 1675.74 μg/mL
[25] = Day 2, 2DF: AgNO3 865.59, 106 837.87 μg/mL
[26] = Day 2, 3DF: AgNO3 432.79, 106 418.94 μg/mL
[27] = Day 2, 4DF: AgNO3 216.40, 106 209.47 μg/mL
[28] = Day 2, undiluted: AgNO3 0.50 wt/V % (3462.35 μg/mL), 106 1.38 wt/V % (3341.48 μg/mL)
[29] = Day 1, supernatant undiluted (Ag: 103 1186, 105 1125, AgN03 3176)
[30] = Day 2, supernatant undiluted (Ag: 103 1186, 105 1125, AgN03 3176)

OCCN1C=CN(Cc2cccc(CN3C=CN(CCO)C3)n2)C1 [Compound 101]
Diameter of Inhibited Area [1]: 6 mm | Diameter of Inhibited Area [2]: 6 mm | Diameter of Inhibited Area [3]: 6 mm | antimicrobial properties (Table 2 summary) [4]: no antimicrobial activity

OCCCN1C=CN(Cc2cccc(CN3C=CN(CCCO)C3)n2)C1 [Compound 102]
Diameter of Inhibited Area [1]: 6 mm | Diameter of Inhibited Area [2]: 6 mm | Diameter of Inhibited Area [3]: 6 mm | antimicrobial properties (Table 2 summary) [4]: no antimicrobial activity

OCCN1C=CN(CN2C=CN(CCO)C2)C1 [Formula 13]
solubility in water / aqueous media [5]: water soluble

CN1c2c(n(C)c(=O)n(C)c2=O)N(C)[CH]1[Ag][CH]1N(C)c2c(n(C)c(=O)n(C)c2=O)N1C (stereo not drawn) [Formula 97a]
stability in water [6]: stable in water for five days

CC(C)Cc1ccc(C(C)C(=O)[O][Ag][c]2n(C)c3c(=O)n(C)c(=O)n(C)c3[n+]2C)cc1 (stereo not drawn) [SCC1-IBU]
MBC ([7]; isolate PA 01-V): 6 µg/mL | MIC ([7]; isolate PA 01-V): 2 µg/mL | MBC ([7]; isolate PA HP3): 2 µg/mL | MIC ([7]; isolate PA HP3): 0.25 µg/mL | MBC ([7]; isolate PA LF05): 1 µg/mL | MIC ([7]; isolate PA LF05): 1 µg/mL | MBC ([7]; isolate PA M57-15): 2 µg/mL | MIC ([7]; isolate PA M57-15): 1 µg/mL | MBC ([7]; isolate PA RR05): 2 µg/mL | MIC ([7]; isolate PA RR05): 0.25 µg/mL | MBC ([8]; isolate AX 22): 2 µg/mL | MIC ([8]; isolate AX 22): 0.5 µg/mL | MBC ([8]; isolate AX RE05): 2 µg/mL | MIC ([8]; isolate AX RE05): 1 µg/mL | MBC [9]: 2 µg/mL | MIC [9]: 1 µg/mL | MBC ([10]; isolate SA EH06): 4 µg/mL | MIC ([10]; isolate SA EH06): 2 µg/mL | MBC ([10]; isolate SA LL06): 6 µg/mL | MIC ([10]; isolate SA LL06): 2 µg/mL | MBC ([11]; isolate YP1-1CO92-LCR-): 2 µg/mL | MIC ([11]; isolate YP1-1CO92-LCR-): 0.5 µg/mL | MBC ([12]; isolate J53): 0.5 µg/mL | MIC ([12]; isolate J53): 0.5 µg/mL | MBC ([12]; isolate J53 + pMG101): >20 µg/mL | MIC ([12]; isolate J53 + pMG101): >20 µg/mL

CC(=O)[O][Ag][c]1n(C)c2c(=O)n(C)c(=O)n(C)c2[n+]1C [SCC1]
MBC ([7]; isolate PA 01-V): 2 µg/mL | MIC ([7]; isolate PA 01-V): 1 µg/mL | MBC ([7]; isolate PA HP3): 8 µg/mL | MIC ([7]; isolate PA HP3): 4 µg/mL | MBC ([7]; isolate PA LF05): 1 µg/mL | MIC ([7]; isolate PA LF05): 1 µg/mL | MBC ([7]; isolate PA M57-15): 4 µg/mL | MIC ([7]; isolate PA M57-15): 2 µg/mL | MBC ([7]; isolate PA RR05): 1 µg/mL | MIC ([7]; isolate PA RR05): 0.5 µg/mL | MBC ([8]; isolate AX 22): 2 µg/mL | MIC ([8]; isolate AX 22): 0.5 µg/mL | MBC ([8]; isolate AX RE05): 8 µg/mL | MIC ([8]; isolate AX RE05): 4 µg/mL | MBC [9]: 8 µg/mL | MIC [9]: 4 µg/mL | MBC ([10]; isolate SA EH06): 20 µg/mL | MIC ([10]; isolate SA EH06): 6 µg/mL | MBC ([10]; isolate SA LL06): 10 µg/mL | MIC ([10]; isolate SA LL06): 8 µg/mL | MBC ([11]; isolate YP1-1CO92-LCR-): 1 µg/mL | MIC ([11]; isolate YP1-1CO92-LCR-): 0.5 µg/mL | MBC ([12]; isolate J53): 1 µg/mL | MIC ([12]; isolate J53): 1 µg/mL | MBC ([12]; isolate J53 + pMG101): >20 µg/mL | MIC ([12]; isolate J53 + pMG101): >20 µg/mL

NC[C@H]1O[C@H](O[C@H]2[C@H](O)[C@@H](O[C@H]3O[C@H](CO)[C@@H](O)[C@H](N)[C@H]3O)[C@H](N)C[C@@H]2N)[C@H](N)C[C@@H]1O [Tobramycin, reference compound]
MBC ([7]; Pseudomonas aeruginosa, isolate PA 01-V, read-out: MBC): > 20 µg/mL | MIC ([7]; Pseudomonas aeruginosa, isolate PA 01-V, read-out: MIC): 15 µg/mL (≈ 32.1 µM) | MBC ([7]; Pseudomonas aeruginosa, isolate PA HP3, read-out: MBC): 8 µg/mL (≈ 17.1 µM) | MIC ([7]; Pseudomonas aeruginosa, isolate PA HP3, read-out: MIC): 4 µg/mL (≈ 8.56 µM) | MBC ([7]; Pseudomonas aeruginosa, isolate PA LF05, read-out: MBC): 1 µg/mL (≈ 2.14 µM) | MIC ([7]; Pseudomonas aeruginosa, isolate PA LF05, read-out: MIC): 0.5 µg/mL (≈ 1.07 µM) | MBC ([7]; Pseudomonas aeruginosa, isolate PA M57-15, read-out: MBC): 1 µg/mL (≈ 2.14 µM) | MIC ([7]; Pseudomonas aeruginosa, isolate PA M57-15, read-out: MIC): 0.5 µg/mL (≈ 1.07 µM) | MBC ([7]; Pseudomonas aeruginosa, isolate PA RR05, read-out: MBC): 1 µg/mL (≈ 2.14 µM) | MIC ([7]; Pseudomonas aeruginosa, isolate PA RR05, read-out: MIC): 0.5 µg/mL (≈ 1.07 µM) | MIC ([8]; Achromobacter xylosoxidans, isolate AX RE05, read-out: MIC): > 20 µg/mL | MBC ([8]; Achromobacter xylosoxidans, isolate AX 22, read-out: MBC): > 20 µg/mL | MIC ([8]; Achromobacter xylosoxidans, isolate AX 22, read-out: MIC): 20 µg/mL (≈ 42.8 µM) | MBC ([8]; isolate AX RE05): >20 µg/mL | MBC ([9]; Stenotrophomonas maltophilia, read-out: MBC): 20 µg/mL (≈ 42.8 µM) | MIC ([9]; Stenotrophomonas maltophilia, read-out: MIC): 8 µg/mL (≈ 17.1 µM) | MBC ([10]; Staphylococcus aureus, MRSA, isolate SA LL06, read-out: MBC): > 20 µg/mL | MIC ([10]; Staphylococcus aureus, MRSA, isolate SA LL06, read-out: MIC): > 20 µg/mL | MBC ([10]; isolate SA EH06): >20 µg/mL | MIC ([10]; isolate SA EH06): >20 µg/mL | MBC ([11]; Yersinia pestis): 0.25 µg/mL (≈ 0.535 µM) | MIC ([11]; Yersinia pestis): 0.25 µg/mL (≈ 0.535 µM) | MBC ([12]; Escherichia coli, isolate J53, read-out: MBC): 1 µg/mL (≈ 2.14 µM) | MIC ([12]; Escherichia coli, isolate J53, read-out: MIC): 1 µg/mL (≈ 2.14 µM) | MBC ([12]; isolate J53 + pMG101): 1 µg/mL | MIC ([12]; isolate J53 + pMG101): 1 µg/mL

silver nitrate [AgNO3, reference compound]
Diameter of Inhibited Area [1]: 11.38 mm | Diameter of Inhibited Area [2]: 11 mm | Diameter of Inhibited Area [3]: 10.88 mm | growth / no growth [13, 19]: − | growth / no growth [13, 20]: − | growth / no growth [13, 21]: − | growth / no growth [13, 22]: − | growth / no growth [13, 23]: − | growth / no growth [13, 24]: − | growth / no growth [13, 25]: − | growth / no growth [13, 26]: − | growth / no growth [13, 27]: + | growth / no growth [13, 28]: − | growth / no growth [14, 19]: − | growth / no growth [14, 20]: − | growth / no growth [14, 21]: − | growth / no growth [14, 22]: − | growth / no growth [14, 23]: − | growth / no growth [14, 24]: − | growth / no growth [14, 25]: − | growth / no growth [14, 26]: − | growth / no growth [14, 27]: − | growth / no growth [14, 28]: − | growth / no growth [15, 19]: − | growth / no growth [15, 20]: − | growth / no growth [15, 21]: − | growth / no growth [15, 22]: − | growth / no growth [15, 23]: − | growth / no growth [15, 24]: − | growth / no growth [15, 25]: − | growth / no growth [15, 26]: − | growth / no growth [15, 27]: + | growth / no growth [15, 28]: − | growth(+) or no growth(−) [16, 29]: − | growth(+) or no growth(−) ([16]; Day 1, supernatant x 1DF): + | growth(+) or no growth(−) ([16]; Day 1, supernatant x 2DF): + | growth(+) or no growth(−) ([16]; Day 1, supernatant x 3DF): + | growth(+) or no growth(−) ([16]; Day 1, supernatant x 4DF): + | growth(+) or no growth(−) [16, 30]: + | growth(+) or no growth(−) [17, 29]: − | growth(+) or no growth(−) ([17]; Day 1, supernatant x 1DF): + | growth(+) or no growth(−) ([17]; Day 1, supernatant x 2DF): + | growth(+) or no growth(−) ([17]; Day 1, supernatant x 3DF): + | growth(+) or no growth(−) ([17]; Day 1, supernatant x 4DF): + | growth(+) or no growth(−) [17, 30]: + | growth(+) or no growth(−) ([18]; supernatant undiluted (Ag: 103 1186, 105 1125, AgN03 3176)): + | growth(+) or no growth(−) ([18]; supernatant x 1DF): + | growth(+) or no growth(−) ([18]; supernatant x 2DF): + | growth(+) or no growth(−) ([18]; supernatant x 3DF): + | growth(+) or no growth(−) ([18]; supernatant x 4DF): +
